A short description of the series: Particle size of drug particles after bead mill grinding (Microtrac UPA 150 M). Conditions: slurry with PVP K-25 3 w/w % and sodium lauryl sulfate 0.25 w/w % in water, pH 6.07-10.37; zirconia beads 0.5 mm; ground 120 minutes. In kind it is physicochemical. The protocol:
Phenitoin (Shizuoka Caffein Co., Ltd.) (7.5 g, 5 w/w %) as a drug, polyvinylpyrrolidone (PVP K-25, BASF Japan Ltd.) (4.5 g, 3 w/w %) as a polymer compound, sodium lauryl sulfate (Cognis Japan Ltd.) (0.375 g, 0.25 w/w %) as a surfactant were dispersed in 137.6 g of purified water to prepare a slurry. The pH of the slurry was 3.88. The pH was adjusted by adding 1N aqueous sodium hydroxide solution to this slurry, and samples having various pH (pH 6.07, 6.68, 7.36, 8.14, 8.96, 10.37) were prepared.
Each sample (100 g) and beads (217.3 g, filling ratio 70%) were charged into Dyno-mill Research Lab (manufactured by WAB), and the grinding process by the bead mill was carried out for 120 minutes (disc peripheral speed: 4 m/s, temperature: 20° C., fluid speed: 45 g/min). The beads used for the grinding process were YTZ ball (zirconia beads manufactured by Nikkato Corporation, with diameter of 0.5 mm). As used herein, the term “filling ratio” refers to the ratio (in percentage) of the true volume to the bulk volume of the beads, and hereinafter the same is applied.
The particle size of the drug particles after the grinding process was nano-order of less than 1 μm (D50 value). The particle size was determined using Microtrac UPA 150 M (MicrotracBEL Corp.). […]

On to `O=C1NC(=O)C(c2ccccc2)(c2ccccc2)N1` [Phenitoin, Phenytoin], for which the “particle size of the drug particles after the grinding process (D50 value)” value is listed as “less than 1 μm”.

Values taken from US12285526B2, “Nanoparticle composition with reduced contaminant and production method thereof” (Shionogi & Co., Ltd., priority 2019, dated 2025).
